Source: patent publication US8377934B2, “Use of stilbene derivatives for treatment and prevention of aquatic mold infections” (State of Israel, Ministry of Agriculture & Rural …, priority 2006, dated 2013)
Converted amounts (≈) assume the structure as drawn.

What was measured:
[1] = system: Saprolegnia parasitica T-1; assay: Tilapia-saprolegniosis early infection model; assay type: in vivo, Hybrid tilapia (Oreochromis niloticus X Oreochromis aureus)
Experimental: Hybrid tilapia (Oreochromis niloticus X Oreochromis aureus), with an average weight of 20 g were treated against ectoparasites using 25 μg/ml of formaldehyde (37% v/v) two weeks prior to the experiment, and were maintained at a constant temperature of 21° C. in a 100 liter polyethylene tank. The water tank was cooled from an initial temperature of 21° C. to 14° C. over a period of 10 days. The water was kept at a constant temperature of 14° C. and the fish were acclimated for 4 days. Physical stress of abrasion was then applied by agitating 40 fish for 10 seconds within a plastic net (30×20 cm). Following this, a sterile stainless steel tea infuser containing 60 clover-seeds covered with hyphae of Saprolegnia parasitica T-1 (7 day old culture on GP-PS medium at 18° C.) was added to each tank, in which the fish density was 20 fish per 100 liters. This treatment lasted 48 h and allowed the dispersion of zoospores that were produced. The density of the zoospores in the water was determined according to the method described below, and was estimated as 5×10^2-2×10^3 zoospores per liter. The fish were then transferred to different tanks, and treated with Blankophor® BA (200, 100, 50 or 25 mg/L) or Malachite Green (0.25 mg/L) for 8 h at 13-14° C., with 10 fish per 100 L water. The treatments were applied on 2nd, 4th and 6th day following initiation of the experiment. The fish were monitored for 14 days for the presence of any lesion covered with hyphae, indicative of Saprolegnia infection. Skin biopsies of diseased and moribund fish were checked microscopically (10× and 40× magnification). Morbidity and mortality was monitored daily. Moribund and or dead fish were removed from all tanks during the experimental period.
The determination of zoospore density in the water was performed according to Willoughby, L. G. (1994) Fungi and fish diseases, Pisces Press, Stirling, Scotland p. 57.
In brief, a 1 liter sample of water from the 100 liter tank was divided into 1 and 10 ml aliquots in sterile Petri dishes. Each sample was diluted with water to give a final volume of 20 ml and then one sterile clover seed was added in order to attract and keep the zoospores. All the water samples were incubated at room temperature for 72 h allowing spore germination. The density of the zoospores was determined according to the number of seeds covered with visible mycelium.
Treatments were carried out on the 2nd, 4th and 6th days after the initiation of the infection, and each treatment was for a period of 8 h. Fish treated with 0.25 mg/L Malachite Green served as a positive treatment control. Fish were monitored for 14 days. […] All fish treated with Blankophor BA survived for at least 10 days following initiation of the infection, in contrast to untreated fish which progressively died from the 3rd day.
Due to the high efficacy of the treatment with 100 mg/L Blankophor® BA, additional experiments were performed using lower concentrations of Blankophor® BA (50 and 25 mg/L). As in the previous experiments, infected fish were treated in tanks containing different concentrations of the compound on the 2nd, 4th and 6th days after the initiation of the infection. In addition, two additional treatment regimens were added i.e. 50 mg/L (administered on the 2nd and 9th days after initiation of the infection) and 100 mg/L (administered on the 2nd day after initiation of the infection).

S. parasitica CBS 540.67 [2] = assay: Agar-dilution susceptibility testing (filamentous hyphae); assay type: cell-based, Saprolegnia parasitica
S. parasitica T-1 [3] = assay: as above; assay type: cell-based, Saprolegnia parasitica; conditions: 24 h
Experimental: (§1) Two methods were used, each suitable for a different phase of the asexual life cycle of Saprolegnia spp.: i) the broth macrodilution method, for determination of susceptibility of zoospores and cysts; and ii) the agar-dilution method for determination of susceptibility of filamentous hyphae. Each compound was tested three times in each method. Malachite Green was used as positive control.
Twofold serial dilutions were prepared in double distillated sterile water with final drug concentrations ranging from 10,000 to 0.01 mg/L in a final volume of 1.0 ml. […] The mixture was vortexed, and poured into small plates. After agar solidification a small measured piece, taken from a 7-10 day old culture of S. parasitica T-1 on GP-PS medium was placed upside down on each plate. The plates were incubated at room temperature (15-20° C.) for 24 h.

S. parasitica CBS 540.67 [4] = assay: Broth macrodilution susceptibility testing (zoospores and cysts); assay type: cell-based, Saprolegnia parasitica
Experimental: as §1
(§2) This method is a modification of the method used for molds according to EUCAST 7.1 (European Committee on Antibiotic Susceptibility Testing) and CLSI/NCCLS M27-A2 (Clinical Laboratory Standards Institute/National Committee for Clinical Laboratory Standards). For inoculum preparation, S. parasitica isolates were cultured on GP-PS for 7 days with sterile clover seeds at 18° C. […] Cysts and zoospores free from hyphae were collected, and an inoculum of ˜10^3 CFU/ml as measured by hemacytometer counting, was prepared in RPMI. Fluorescent Brightener 28 stock solution was prepared by adding 40% KOH gradually to a 10 mg/ml solution in water, until it was clear, then it was filtered twice through a 0.2 μm cellulose acetate nonpyrogenic sterile filter (Schleicher & Schuell, Dassel, Germany).
(§3) Final drug concentrations in the test tubes ranged from 1×10^4 to 0.01 mg/L. Inoculum of 0.9 ml was added to each of a sterile tube containing 0.1 ml of the serially diluted drug. Two tubes containing drug-free medium and two tubes containing drug-free inoculum were used as controls. The inoculated tubes were incubated at room temperature (15-20° C.) for 24 h. The growth in each tube was then evaluated visually.

S. parasitica T-1 [5] = assay: as above; assay type: cell-based, Saprolegnia parasitica; conditions: 24 h
Experimental: as §1, §2, §3

[6] = S. parasitica CBS 540.67, 24 h, 15-20° C., geometric mean of three tests
[7] = S. parasitica T-1, 15-20° C., geometric mean of three tests

Compound | preventing and treating saprolegniosis in tilapia fish ([1]; 25 mg/liter for 8 hours) | clinical observation, lesions ([1]; 50 and 100 mg/L) | culture for Saprolegnia ([1]; 50 and 100 mg/L) | survival following initiation of the infection ([1]; 100 and 200 mg/L, 8 h on 2nd, 4th and 6th day, all treated fish) | therapeutic efficacy (survival of fish) ([1]; 100 and 200 mg/L, 8 h on 2nd, 4th and 6th day, monitored 14 days) | Therapeutic efficacy ([1]; Table 4 summary) | efficacy in preventing and treating early stage saprolegniosis ([1]; even at a concentration as low as 25 mg/L, also 50 mg/L (days 2, 9) and 100 mg/L (day 2)) | MIC, Agar-dilution (S. parasitica CBS 540.67 [2]; [6]) [µg/mL] | MIC, Agar-dilution (S. parasitica T-1 [3]; [7]) [µg/mL] | MIC, Macrodilution (S. parasitica CBS 540.67 [4]; [6]) [µg/mL] | MIC, Macrodilution (S. parasitica T-1 [5]; [7]) [µg/mL] | fish died within 14 days ([1]; 100 mg/L on 2nd, 4th and 6th days) [%] | MIC (S. parasitica CBS 540.67 [2]; Saprolegnia parasitica, CBS540, 24 h, read-out: MIC, Agar-dilution) [µg/mL] | MIC (S. parasitica T-1 [3]; Saprolegnia parasitica, read-out: MIC, Agar-dilution) [µg/mL] | MIC (S. parasitica CBS 540.67 [4]; Saprolegnia parasitica, CBS540, 24 h, read-out: MIC, Macrodilution) [µg/mL] | MIC (S. parasitica T-1 [5]; Saprolegnia parasitica, read-out: MIC, Macrodilution) [µg/mL]
O=S(=O)([O-])c1cc(Nc2nc(Nc3ccccc3)nc(N(CCO)CCO)n2)ccc1C=Cc1ccc(Nc2nc(Nc3ccccc3)nc(N(CCO)CCO)n2)cc1S(=O)(=O)[O-].[K+].[Na+] [Blankophor® BA] | effective | free of lesions | negative upon culture | at least 10 days | as effective as Malachite Green | Very Effective | highly effective | 200 | 200 | 200 | 100 | – | – | – | – | –
C=O [Formaldehyde] | – | – | – | – | – | – | – | – | – | – | – | 70 | 100 (≈ 3.33 mM) | 100 (≈ 3.33 mM) | 100 (≈ 3.33 mM) | 100 (≈ 3.33 mM)
